pIC50: −log10 of the molar value. Activity calls are given as the source filed them.
Tests used:
[1] = inhibition of K1F phage lysis, E. coli UTI89, bacterial capsule biogenesis inhibitors, alamar blue (AID 488966); format: functional
[2] = target: Induced myeloid leukemia cell differentiation protein Mcl-1 (Homo sapiens, UniProt Q07820); format: functional
[3] = target: SUMO E1/E2 (Homo sapiens, UniProt P63279+Q9UBE0+Q9UBT2); assay: SAR analysis of SUMOylation using HTRF in an in-Vitro dose response assay. [Related pubchem assays (depositor defined):AID2006, AID2011, AID2018, AID2069, AID2658]; format: functional
Sequence of SUMO E1/E2 (Q9UBE0 whole entry): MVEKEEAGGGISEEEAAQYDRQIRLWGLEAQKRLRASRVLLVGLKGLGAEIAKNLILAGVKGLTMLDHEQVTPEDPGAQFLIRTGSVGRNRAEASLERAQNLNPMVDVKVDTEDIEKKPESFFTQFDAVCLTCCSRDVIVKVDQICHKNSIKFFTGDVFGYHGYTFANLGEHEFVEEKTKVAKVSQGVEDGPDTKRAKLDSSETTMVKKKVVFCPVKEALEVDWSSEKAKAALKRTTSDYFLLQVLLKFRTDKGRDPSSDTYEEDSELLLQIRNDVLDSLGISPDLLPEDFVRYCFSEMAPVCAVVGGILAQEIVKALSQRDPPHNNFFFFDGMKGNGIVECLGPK
Sequence of SUMO E1/E2 (Q9UBT2 whole entry): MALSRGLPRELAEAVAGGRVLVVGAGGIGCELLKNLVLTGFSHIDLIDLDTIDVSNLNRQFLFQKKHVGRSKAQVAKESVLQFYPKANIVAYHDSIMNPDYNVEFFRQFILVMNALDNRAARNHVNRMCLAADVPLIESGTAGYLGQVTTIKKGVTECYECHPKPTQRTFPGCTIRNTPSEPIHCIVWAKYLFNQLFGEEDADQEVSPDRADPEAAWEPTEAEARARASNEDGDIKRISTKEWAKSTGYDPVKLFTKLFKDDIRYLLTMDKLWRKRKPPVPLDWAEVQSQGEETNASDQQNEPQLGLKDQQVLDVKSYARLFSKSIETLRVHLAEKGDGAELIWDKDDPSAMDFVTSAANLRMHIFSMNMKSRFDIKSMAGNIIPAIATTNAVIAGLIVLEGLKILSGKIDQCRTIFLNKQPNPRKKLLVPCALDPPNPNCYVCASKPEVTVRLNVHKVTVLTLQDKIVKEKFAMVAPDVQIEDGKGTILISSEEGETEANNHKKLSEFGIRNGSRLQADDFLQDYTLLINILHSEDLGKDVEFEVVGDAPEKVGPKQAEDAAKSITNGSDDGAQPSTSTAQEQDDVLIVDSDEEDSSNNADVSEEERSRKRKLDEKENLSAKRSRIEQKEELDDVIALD
Sequence of SUMO E1/E2 (P63279 whole entry): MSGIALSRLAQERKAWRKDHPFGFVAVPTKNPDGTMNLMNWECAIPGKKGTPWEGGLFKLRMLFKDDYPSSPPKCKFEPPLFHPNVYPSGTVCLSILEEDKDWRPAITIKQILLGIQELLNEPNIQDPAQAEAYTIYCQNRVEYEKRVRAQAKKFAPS

[4] = target: T1, Hexokinase HKDC1 (Homo sapiens, UniProt Q2TB90); assay: HKDC1 hexokinase inhibitors, dose response, biochemical, W721R variant (AID 504729); format: functional
T1 sequence (Q2TB90 whole entry): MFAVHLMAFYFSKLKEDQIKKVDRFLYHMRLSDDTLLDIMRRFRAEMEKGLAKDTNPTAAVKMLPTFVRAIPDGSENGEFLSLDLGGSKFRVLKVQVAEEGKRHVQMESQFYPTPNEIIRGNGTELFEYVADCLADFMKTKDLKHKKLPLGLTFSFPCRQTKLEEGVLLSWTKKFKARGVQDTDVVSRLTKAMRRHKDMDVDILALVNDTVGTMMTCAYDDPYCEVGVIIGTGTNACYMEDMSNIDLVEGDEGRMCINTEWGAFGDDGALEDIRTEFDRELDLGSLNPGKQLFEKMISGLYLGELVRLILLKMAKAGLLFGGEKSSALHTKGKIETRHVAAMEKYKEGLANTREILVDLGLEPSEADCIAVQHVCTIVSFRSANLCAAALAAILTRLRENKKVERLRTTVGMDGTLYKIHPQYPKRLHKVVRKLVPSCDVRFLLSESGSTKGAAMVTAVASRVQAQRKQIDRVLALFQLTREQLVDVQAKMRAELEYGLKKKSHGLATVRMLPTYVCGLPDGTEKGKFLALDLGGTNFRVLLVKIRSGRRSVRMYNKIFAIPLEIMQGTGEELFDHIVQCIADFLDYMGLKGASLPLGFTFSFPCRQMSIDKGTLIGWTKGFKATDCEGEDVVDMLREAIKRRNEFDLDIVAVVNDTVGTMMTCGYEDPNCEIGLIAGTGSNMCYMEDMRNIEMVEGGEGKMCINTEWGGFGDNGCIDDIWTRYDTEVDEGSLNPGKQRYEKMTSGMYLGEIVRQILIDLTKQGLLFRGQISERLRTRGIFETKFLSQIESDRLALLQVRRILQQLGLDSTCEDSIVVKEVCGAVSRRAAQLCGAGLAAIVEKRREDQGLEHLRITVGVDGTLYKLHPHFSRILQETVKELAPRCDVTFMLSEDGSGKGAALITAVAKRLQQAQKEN

[5] = tested on: Streptococcus; assay: Group A Streptococcus viability loss, dose response, counter-screen for streptokinase expression inhibitor project, luminescence, BacTiterGlo (AID 1915); format: functional, organism-based;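 also: potency for reduction of bacterial viability or growth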
[6] = target: T2, Delta-type opioid receptor (Homo sapiens, UniProt P41143); assay: HTS Image-Based Screen for Agonists of the DOR Receptor. [Related pubchem assays (depositor defined):AID1777, AID1786, AID2133]; format: functional
T2 sequence (P41143 whole entry): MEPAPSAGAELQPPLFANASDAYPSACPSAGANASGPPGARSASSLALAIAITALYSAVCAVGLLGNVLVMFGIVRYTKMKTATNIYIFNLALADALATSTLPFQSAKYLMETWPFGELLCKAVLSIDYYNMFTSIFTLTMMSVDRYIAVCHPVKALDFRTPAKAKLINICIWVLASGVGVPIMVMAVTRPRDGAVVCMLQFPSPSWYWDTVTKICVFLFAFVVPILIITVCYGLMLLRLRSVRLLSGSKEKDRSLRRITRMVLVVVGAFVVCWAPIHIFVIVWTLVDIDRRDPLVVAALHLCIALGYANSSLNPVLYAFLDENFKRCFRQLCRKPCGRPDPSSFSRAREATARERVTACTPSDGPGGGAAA

[7] = cytotoxicity in MIN6 insulinoma cells, dose response, cytotoxicity control, cell-based, mouse insulinoma (AID 2122); format: functional;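 also: confirmatory high-throughput counterscreen run to flag cytotoxic compounds; mouse MIN-6 beta cells carrying an insulin promoter eGFP reporter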
[8] = HepG2 cell cytotoxicity, dose response, cytotoxicity control for Shn3 inhibitor project, CellTiter-Glo, cherry-picked (AID 624134); format: functional, cell-based
[9] = insulin promoter down-regulators in MIN6 cells, imaging, high-content screening, mouse beta cells (AID 1628); format: functional
[10] = control 3'UTR Renilla luciferase suppression, dose response, counter-screen for Shn3 inhibitor project, cell-based, Clone20-Shn3RL, cherry-picked (AID 624133); format: functional
[11] = target: T3, Kappa-type opioid receptor (Homo sapiens, UniProt P41145); format: functional
T3 sequence (P41145 whole entry): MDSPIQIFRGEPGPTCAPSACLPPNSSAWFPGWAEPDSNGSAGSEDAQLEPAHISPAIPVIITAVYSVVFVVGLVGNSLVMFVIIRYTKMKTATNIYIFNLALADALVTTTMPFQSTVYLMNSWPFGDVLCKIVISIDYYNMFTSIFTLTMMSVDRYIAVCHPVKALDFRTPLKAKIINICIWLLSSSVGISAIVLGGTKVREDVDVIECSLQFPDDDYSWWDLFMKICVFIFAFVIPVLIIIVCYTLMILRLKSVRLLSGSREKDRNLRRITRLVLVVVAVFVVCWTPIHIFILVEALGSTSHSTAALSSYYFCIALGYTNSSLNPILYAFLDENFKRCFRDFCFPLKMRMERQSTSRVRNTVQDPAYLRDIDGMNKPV

[12] = tested on: Streptococcus sp. 'group A'; assay: growth inhibition of control SK(-) GAS strain, dose response, counter-screen for streptokinase expression inhibitor project, luminescence, kanamycin, BacTiterGlo, confirmation (AID 1900); format: functional, organism-based
[13] = target: T3, Kappa-type opioid receptor; format: functional; remark: listed apart in the source
[14] = target: Mu-type opioid receptor (Homo sapiens, UniProt P35372); assay: HTS Image-Based Screen for Agonists of the MOR Receptor. [Related pubchem assays (depositor defined):AID1777, AID1785, AID1786, AID2133]; format: functional;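 also: imaging of beta-arrestin GFP recruitment into spots after receptor activation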
Sequence of Mu-type opioid receptor (P35372 whole entry): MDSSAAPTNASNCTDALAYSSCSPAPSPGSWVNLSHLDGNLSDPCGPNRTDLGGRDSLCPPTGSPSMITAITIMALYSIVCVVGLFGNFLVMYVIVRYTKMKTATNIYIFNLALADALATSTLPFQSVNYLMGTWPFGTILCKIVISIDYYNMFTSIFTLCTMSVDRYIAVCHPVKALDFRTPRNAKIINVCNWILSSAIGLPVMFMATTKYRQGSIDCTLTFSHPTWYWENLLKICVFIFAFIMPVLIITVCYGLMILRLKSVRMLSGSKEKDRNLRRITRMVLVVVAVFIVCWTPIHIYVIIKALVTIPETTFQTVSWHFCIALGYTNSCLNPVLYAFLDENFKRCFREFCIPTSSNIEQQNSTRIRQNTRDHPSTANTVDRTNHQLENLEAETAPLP

[15] = Shn3 3'UTR reporter inhibitors, dose response, cell-based, Clone20 osteoblasts, firefly luciferase, cherry-picked (AID 624132); format: functional;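 also: firefly luciferase luminescence from reporter carrying the Shn3 3'UTR in osteoblasts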
[16] = target: T2, Delta-type opioid receptor; assay: HTS Image-Based Screen for Antagonists of the DOR Receptor. [Related pubchem assays (depositor defined):AID1777, AID1785, AID1786, AID2133]; format: functional
[17] = target: Beta-galactosidase (Escherichia coli, UniProt Q8VNN2); format: functional
Sequence of Beta-galactosidase (Q8VNN2 whole entry): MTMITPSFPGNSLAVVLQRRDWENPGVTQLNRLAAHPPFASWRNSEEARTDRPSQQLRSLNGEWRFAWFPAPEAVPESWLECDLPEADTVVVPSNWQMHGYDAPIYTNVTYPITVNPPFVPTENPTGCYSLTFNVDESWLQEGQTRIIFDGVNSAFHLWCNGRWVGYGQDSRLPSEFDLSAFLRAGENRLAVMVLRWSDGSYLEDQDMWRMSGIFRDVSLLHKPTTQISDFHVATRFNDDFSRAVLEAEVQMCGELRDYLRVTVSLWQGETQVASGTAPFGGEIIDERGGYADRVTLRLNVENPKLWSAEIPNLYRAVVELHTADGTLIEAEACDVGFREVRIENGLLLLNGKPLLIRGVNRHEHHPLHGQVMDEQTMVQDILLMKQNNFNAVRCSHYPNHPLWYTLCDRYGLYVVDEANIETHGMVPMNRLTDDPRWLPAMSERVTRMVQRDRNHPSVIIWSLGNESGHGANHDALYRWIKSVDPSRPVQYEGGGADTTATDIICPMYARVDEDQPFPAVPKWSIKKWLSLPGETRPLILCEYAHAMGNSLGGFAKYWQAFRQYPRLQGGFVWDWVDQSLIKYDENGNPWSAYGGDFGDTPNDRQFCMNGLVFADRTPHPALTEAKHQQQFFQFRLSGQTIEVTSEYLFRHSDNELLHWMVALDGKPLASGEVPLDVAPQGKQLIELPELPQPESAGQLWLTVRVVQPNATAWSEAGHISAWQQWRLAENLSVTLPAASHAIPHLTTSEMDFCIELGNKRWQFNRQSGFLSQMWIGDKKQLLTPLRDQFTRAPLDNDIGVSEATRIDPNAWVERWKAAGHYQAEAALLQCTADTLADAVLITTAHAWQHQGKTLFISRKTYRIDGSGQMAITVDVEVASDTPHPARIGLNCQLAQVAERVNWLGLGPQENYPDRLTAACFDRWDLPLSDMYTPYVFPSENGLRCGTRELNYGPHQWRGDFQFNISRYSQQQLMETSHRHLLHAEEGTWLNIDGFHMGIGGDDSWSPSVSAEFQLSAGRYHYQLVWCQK

[18] = M. tuberculosis H37Rv growth inhibitors, H37Rv strain (AID 1626); format: functional
[19] = tested on: INS1; assay: beta cell apoptosis inhibitors, cytokine rescue, dose response, luminescence, retest (AID 449756); format: functional, cell-based; conditions: Rattus norvegicus;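 also: cell death triggered by IL-1 beta plus TNF-alpha plus IFN-gamma mixture; protective hits raise ATP signal compared with cytokine alone wells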
[20] = target: X-box-binding protein 1 (Homo sapiens, UniProt P17861); format: functional, Cricetulus griseus;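 also: confirmatory dose-response counter-screen serving a CHOP assay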
Sequence of X-box-binding protein 1 (P17861 whole entry): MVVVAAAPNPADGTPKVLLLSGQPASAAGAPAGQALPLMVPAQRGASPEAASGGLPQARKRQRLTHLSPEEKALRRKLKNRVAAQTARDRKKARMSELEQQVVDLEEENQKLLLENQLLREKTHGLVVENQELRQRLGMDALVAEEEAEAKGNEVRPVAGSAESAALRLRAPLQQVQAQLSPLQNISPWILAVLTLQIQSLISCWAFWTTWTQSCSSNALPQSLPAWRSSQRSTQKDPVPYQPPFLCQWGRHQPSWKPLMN

[21] = cytotoxicity toward DRD oncogenic fibroblasts, dose response, cell-based, non-viral oncogenic, luminescence (AID 1934); format: functional; conditions: Homo sapiens
[22] = tested on: BJ; assay: cells; format: functional, cell-based; conditions: Homo sapiens
[23] = tested on: Vero; assay: cells; format: functional; conditions: Chlorocebus sabaeus
[24] = target: Neurotensin receptor type 1 (Homo sapiens, UniProt P30989); format: functional;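 also: Image-based confirmatory dose-response assay measuring agonist activity at NTR1; NTR1-expressing U2OS osteosarcoma cells imaged for beta-arrestin GFP spot formation; agonist potency where compounds increase beta-arrestin recruitment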
Sequence of Neurotensin receptor type 1 (P30989 whole entry): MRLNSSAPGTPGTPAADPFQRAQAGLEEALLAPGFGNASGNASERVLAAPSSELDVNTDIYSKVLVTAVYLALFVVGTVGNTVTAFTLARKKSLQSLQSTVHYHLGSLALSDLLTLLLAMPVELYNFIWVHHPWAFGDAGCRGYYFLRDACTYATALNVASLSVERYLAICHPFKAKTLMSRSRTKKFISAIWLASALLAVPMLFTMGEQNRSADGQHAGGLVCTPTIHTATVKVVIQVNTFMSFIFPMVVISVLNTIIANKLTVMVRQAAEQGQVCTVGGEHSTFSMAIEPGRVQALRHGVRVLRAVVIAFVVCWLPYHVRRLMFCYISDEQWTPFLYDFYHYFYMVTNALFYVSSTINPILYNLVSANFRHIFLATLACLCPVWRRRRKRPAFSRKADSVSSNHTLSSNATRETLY

[25] = tested on: BJ; assay: cytotoxicity toward BJ-TERT-LT-ST fibroblasts, dose response, cell-based, RAS-independent, luminescence (AID 1935); format: functional; conditions: Homo sapiens;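 also: BJ fibroblasts immortalized with TERT plus LT and ST oncogenes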
[26] = tested on: BJ; assay: cytotoxicity toward BJ-TERT fibroblasts, dose response, cell-based, RAS-independent, luminescence (AID 1933); format: functional; conditions: Homo sapiens
[27] = tested on: Vero; assay: cells; format: functional, cell-based; conditions: Chlorocebus sabaeus
[28] = target: T4, Tyrosine-protein phosphatase non-receptor type 7 (Homo sapiens, UniProt P35236); format: functional
T4 sequence (P35236 whole entry): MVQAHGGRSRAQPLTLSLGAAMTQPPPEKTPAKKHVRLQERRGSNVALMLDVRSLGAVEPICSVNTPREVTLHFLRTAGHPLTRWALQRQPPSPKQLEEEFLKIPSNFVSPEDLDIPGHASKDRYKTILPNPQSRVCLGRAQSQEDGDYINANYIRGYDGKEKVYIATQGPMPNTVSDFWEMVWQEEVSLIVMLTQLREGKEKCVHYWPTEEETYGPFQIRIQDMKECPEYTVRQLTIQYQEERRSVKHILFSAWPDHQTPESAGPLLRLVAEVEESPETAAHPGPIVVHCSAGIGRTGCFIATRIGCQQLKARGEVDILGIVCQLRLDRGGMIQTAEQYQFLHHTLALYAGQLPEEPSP

[29] = target: T5, Small ubiquitin-related modifier 1 (Homo sapiens, UniProt P63165); assay: inhibitors of SUMO1 partner interactions, dose response, biochemical, FRET (AID 624383); format: functional; conditions: read-out: IC50_Mean
T5 sequence (P63165 whole entry): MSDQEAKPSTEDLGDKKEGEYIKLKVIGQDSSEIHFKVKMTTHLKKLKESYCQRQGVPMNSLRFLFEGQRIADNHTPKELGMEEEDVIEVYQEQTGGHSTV

[30] = target: T6, Tyrosine-protein phosphatase non-receptor type 22 (Homo sapiens, UniProt Q9Y2R2); format: functional
T6 sequence (Q9Y2R2 whole entry): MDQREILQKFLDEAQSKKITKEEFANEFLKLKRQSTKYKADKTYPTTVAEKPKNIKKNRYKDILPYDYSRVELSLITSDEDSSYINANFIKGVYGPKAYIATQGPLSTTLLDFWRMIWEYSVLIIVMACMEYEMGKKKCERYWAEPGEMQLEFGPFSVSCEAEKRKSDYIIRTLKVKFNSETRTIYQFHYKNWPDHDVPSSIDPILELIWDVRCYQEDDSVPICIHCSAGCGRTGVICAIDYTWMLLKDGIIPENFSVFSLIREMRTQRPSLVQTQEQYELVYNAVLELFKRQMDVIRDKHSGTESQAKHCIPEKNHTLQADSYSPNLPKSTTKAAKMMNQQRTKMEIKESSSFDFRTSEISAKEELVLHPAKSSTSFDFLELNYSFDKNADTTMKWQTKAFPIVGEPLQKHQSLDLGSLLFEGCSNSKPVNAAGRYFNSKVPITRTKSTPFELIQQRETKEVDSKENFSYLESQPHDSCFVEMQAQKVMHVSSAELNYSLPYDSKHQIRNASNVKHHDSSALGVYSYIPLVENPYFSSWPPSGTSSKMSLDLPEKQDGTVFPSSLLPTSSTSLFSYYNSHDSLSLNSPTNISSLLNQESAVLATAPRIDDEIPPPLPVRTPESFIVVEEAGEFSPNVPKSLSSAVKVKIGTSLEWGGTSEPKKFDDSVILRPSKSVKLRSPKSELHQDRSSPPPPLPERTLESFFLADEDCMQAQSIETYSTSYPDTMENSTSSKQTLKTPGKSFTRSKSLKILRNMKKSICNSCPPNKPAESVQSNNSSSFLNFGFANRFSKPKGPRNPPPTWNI

[31] = target: T6, Tyrosine-protein phosphatase non-receptor type 22; format: functional; remark: listed apart in the source
[32] = target: T5, Small ubiquitin-related modifier 1; assay: inhibitors of SUMO1 peptide binding, dose response, biochemical, fluorescence polarization, uHTS hits (AID 624382); format: functional; conditions: read-out: IC50_Mean

Sequence of Induced myeloid leukemia cell differentiation protein Mcl-1 (Q07820 whole entry): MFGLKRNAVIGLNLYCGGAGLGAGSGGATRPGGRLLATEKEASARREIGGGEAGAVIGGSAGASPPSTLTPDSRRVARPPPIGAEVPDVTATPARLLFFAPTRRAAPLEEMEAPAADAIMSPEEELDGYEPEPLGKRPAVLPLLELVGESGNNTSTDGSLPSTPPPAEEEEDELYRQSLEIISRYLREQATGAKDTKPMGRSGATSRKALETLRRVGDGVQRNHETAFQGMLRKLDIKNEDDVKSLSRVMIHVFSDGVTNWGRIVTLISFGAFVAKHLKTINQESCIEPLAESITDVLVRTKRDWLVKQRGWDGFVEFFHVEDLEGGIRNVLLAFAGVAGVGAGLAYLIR

Structure (SMILES): Cc1ccc(C(=O)Oc2ccc(/C=C3\C(=N)N4N=C(N5CCOCC5)SC4=NC3=O)cc2)cc1
- IC50 [1]: > 75 µM (active)

Structure (SMILES): CCc1ccc2nc3sc(C(=O)Nc4nnc(CC)s4)c(N)c3cc2c1
- IC50 [1]: > 150 µM (active)
- IC50 [2]: 4.39 µM (not active)

Structure (SMILES): Clc1ccc2c(c1)C1C=CCC1C(c1ccccc1)N2 (stereo not drawn)
- IC50 [3]: > 100 µM (inactive)

Structure (SMILES): Nc1c(Br)cc2c3c(cccc13)-c1ccccc1-2
- IC50 [4]: 4.58 µM (active)

Structure (SMILES): CCc1nnc(NC(=O)c2cccc(C(=O)Nc3nnc(CC)s3)n2)s1
- EC50 [5]: 3.5 µM (active)
- EC50 [6]: > 32 µM (inactive)
- IC50 [7]: 0.568 µM (active)
- AC50 [8]: 5.56 µM (active)
- IC50 [9]: 0.666 µM (active)
- AC50 [10]: 0.573 µM (active)
- pIC50 [11]: < 4.49
- EC50 [12]: 0.829 µM (active)
- IC50 [13]: 5 µM (inactive)
- EC50 [14]: > 32 µM (inactive)
- AC50 [15]: 1.45 µM (active)
- IC50 [16]: > 32 µM (inactive)
- EC50 [17]: > 31.5 µM (inactive)
- IC50 [18]: 100 µM (active)
- AC50 [19]: 0.678 µM (active)

Structure (SMILES): Cc1ccc(NC(=O)C(=O)NCC2OCCc3ccccc32)cc1 (stereo not drawn)
- Absolute IC50 (XBP1) [20]: 10 µM

Structure (SMILES): CCN(CC)c1ccc(C=C2C(=O)NC(=S)NC2=O)cc1
- EC50 [21]: 10.8 µM (active)
- EC50 [22]: 15.9 µM (active)
- CC50 [23]: 13.9 µM (active)
- EC50 [24]: 3.91 µM (active)
- EC50 [25]: > 75 µM (inconclusive)
- EC50 [26]: 13.5 µM (active)
- IC50 [27]: > 25 µM (active)

Structure (SMILES): CC(=O)c1ccc2c(c1)C1C(Cl)C(Sc3ccccc3[N+](=O)[O-])CC1C(C(=O)O)N2 (stereo not drawn)
- IC50 [28]: 58.2 µM (active)
- IC50 [29]: 13.2 µM (active)
- IC50 [30]: 32 µM (active)
- IC50 [31]: 57.9 µM (active)
- IC50 [32]: > 66.6 µM (inactive)

— ChEMBL document CHEMBL1201862, “PubChem BioAssay data set” (2004)
